According to PMC10044725, “Antioxidant, Anti-Inflammatory and Anti-Diabetic Activities of Tectona grandis Methanolic Extracts, Fractions, and Isolated Compounds” (Antioxidants, 2023):
Marks after values point to notes of the source that are not given here.

Tests used:
α-glucosidase = experiment: α-Glucosidase inhibition assay (pNPG); type: biochemical; conditions: for Inhibitory Rate (%): at a concentration of 50 µM; for IC50: compounds
Procedure: The inhibitory effect on α-glucosidase was measured according to the previous report method with slight modifications. The 20 mM sample dissolved in DMSO was diluted to 50 μM in PBS, 10 μL sample was mixed with 50 μL of 0.1 μ/mL α-glucosidase solution in 0.1 M phosphate buffer (pH 6.5) in a 96-well microplate and 10 μL PBS was used as a blank control. The mixture was incubated at 37 °C for 10 min before adding 40 µL of 5 mM 4-nitrophenyl-α-D-glucopyranoside to each well. After 30 min of incubation at 37 °C, the reaction was terminated by adding 50 μL of 0.1 M Na2CO3 to this mixture. The released 4-nitrophenol absorbance measurements were carried out using a microplate reader (SpectraMax190, USA) at 405 nm.

[1] = ABTS radical cation scavenging assay (Trolox equivalent)
Procedure: The ABTS radical cation (ABTS•+) scavenging activities were conducted in accordance with the instructions for the ABTS kit. The total antioxidant activity values were estimated using the Trolox equivalent antioxidant capacity test. The detection concentration of methanolic extract and different fractions was 80 μg/mL, and the detection concentration of compounds (1–23) was 50 μM. […] Then, 190 μL of ABTS working reagent was mixed with 10 μL sample and incubated at room temperature for 5 min. The absorbance was then measured using a microplate reader at 734 nm, and the scavenging activity was calculated according to Equation (2). The blank control group used DMSO to replace the sample. […] The analysis was performed in triplicates, 1.424, 0.0012 was a constant.

[2] = Ferric reducing antioxidant power (FRAP) assay; conditions: Trolox equivalent
Procedure: The FRAP assay was determined in accordance with the instructions for the FRAP kit. The total antioxidant activity values were estimated using the Trolox equivalent antioxidant capacity test. Initially, the detection concentration of methanolic extract and different fractions was 80 μg/mL, and the detection concentration of compounds (1–23) was 50 μM. Then, 190 μL of FRAP working reagent was mixed with 10 μL sample and incubated at room temperature for 20 min. The absorbance was then measured using a microplate reader at 593 nm, and the scavenging activity was calculated according to Equation (3). The blank control group used DMSO to replace the sample. […] The analysis was performed in triplicates, 0.8054, 0.0134 was a constant.

[3] = DPPH free radical scavenging assay; conditions: half scavenging concentration; for EC50: isolated compounds, read-out: DPPH Assay SC50
Procedure: The DPPH free radical scavenging activities of T. grandis methanolic extract, different fractions and its compounds were conducted according to Dr. Yang et al.. […] The absorbance was measured using a microplate reader at 517 nm, and ascorbic acid was used as a positive control. The DPPH scavenging activity was calculated according to the following formula: Scavenging activity (%) = [1 − (A1 − A2)/(A3 − A4)] × 100% (1) where A1 is the OD value of the tested samples, A2 is the OD value of the sample control, A3 is the OD value of the negative control and A4 is the OD value of the blank control. The analysis was performed in triplicates and the results were described as SC50 values.

[4] = methanolic extract and fractions at 80 μg/mL

SMILES | Inhibitory Rate (%) (α-glucosidase) | IC50 (α-glucosidase) | EC50 [3] | ABTS Assay ([1]; compounds at 50 μM) | FRAP Assay ([2]; compounds at 50 μM) | ABTS Assay [1, 4] | FRAP Assay [2, 4] | DPPH Assay SC50 ([3]; methanolic extract and fractions, ascorbic acid positive control)
C[C@H]1O[C@H](O[C@H]2[C@H](O)[C@@H](O)[C@@H](O[C@H]3[C@H](O)[C@@H](O)C(O)O[C@@H]3CO)O[C@@H]2CO)[C@H](O)[C@@H](O)[C@@H]1N[C@H]1C=C(CO)[C@@H](O)[C@H](O)[C@H]1O (some centres unmarked) [Acarbose, reference compound] | 99.53 ± 0.01 ^a % | – | – | – | – | – | – | –
COc1ccc(/C=C/C=O)cc1O [Compound 17, 3-hydroxy-4-methoxycinnamaladehyde] | 8.69 ± 1.94 ^de % | > 50 µM | – | 0.80 ± 0.01 ^a mmol Trolox/L | – | – | – | –
O=c1c(O)c(-c2ccc(O)c(O)c2)oc2cc(O)cc(O)c12 [Compound 8, quercetin] | 1.27 ± 0.25 ^e % | – | – | 1.05 ± 0.01 ^a mmol Trolox/L | 0.01 ± 0.00 ^c mmol Trolox/L | – | – | –
COc1ccc(-c2cc(=O)c3c(O)cc(O[C@@H]4O[C@H](C(=O)O)[C@@H](O)[C@H](O)[C@H]4O)cc3o2)cc1 [Compound 2, acacetin-7-O-β-glucuronide] | 31.35 ± 6.46 ^c % | > 50 µM | 17.4 ± 1.08 µM | 0.92 ± 0.01 ^a mmol Trolox/L | 0.03 ± 0.01 ^c mmol Trolox/L | – | – | –
Cc1cc2c(cc1O)C(=O)c1ccccc1C2=O [Compound 14, 3-hydroxy-2-methyl-9,10-anthraquinone] | 20.03 ± 2.44 ^c % | > 50 µM | 25.8 ± 0.57 µM | 0.09 ± 0.06 ^d mmol Trolox/L | 0.03 ± 0.00 ^c mmol Trolox/L | – | – | –
COc1cc(C)cc2c1C(=O)c1c(O)cc(O)cc1C2=O [Compound 12, 1-O-methylemodin] | 53.04 ± 0.36 ^bc % | – | – | 0.03 ± 0.00 ^d mmol Trolox/L | – | – | – | –
O=C1O[C@H]([C@@H](O)CO)C(O)=C1O [Ascorbic acid, reference compound] | – | – | 13.45 ± 0.02 µM | 0.85 ± 0.00 ^a mmol Trolox/L | 1.01 ± 0.06 ^a mmol Trolox/L | 0.99 ± 0.00 ^a mmol Trolox/L | 1.35 ± 0.02 ^b mmol Trolox/L | 3.39 ± 0.98 ^e µg/mL

Now from value to compound, other results behind:

Inhibitory Rate (%) (α-glucosidase) | IC50 (α-glucosidase) | EC50 [3] | SMILES | ABTS Assay ([1]; compounds at 50 μM) | FRAP Assay ([2]; compounds at 50 μM) | ABTS Assay [1, 4] | FRAP Assay [2, 4] | DPPH Assay SC50 ([3]; methanolic extract and fractions, ascorbic acid positive control)
20.58 ± 1.30 ^c % | > 50 µM | – | COc1cc(O)c2c(c1O)C(=O)c1cc(C)ccc1C2=O [Compound 22, austrocortirubin] | 0.32 ± 0.01 ^bc mmol Trolox/L | – | – | – | –
3.13 ± 4.06 ^e % | > 50 µM | – | Cc1ccc2c(c1O)C(=O)c1cccc(O)c1C2=O [Compound 9, isozyganein] | – | – | – | – | –
29.06 ± 1.86 ^cd % | > 50 µM | 5.22 ± 0.19 µM | O=c1cc(-c2ccc(O)cc2)oc2cc(O)cc(O)c12 [Compound 3, apigenin] | 0.05 ± 0.00 ^d mmol Trolox/L | 0.01 ± 0.01 ^c mmol Trolox/L | – | – | –
4.57 ± 4.37 ^e % | > 50 µM | – | O=C(O)C1OC(Oc2cc(-c3cc(=O)c4c(O)cc(O)cc4o3)ccc2O)C(O)C(O)C1O (centres unmarked) [Compound 11, luteolin-3′-O-glucuronide] | 0.65 ± 0.00 ^b mmol Trolox/L | 0.01 ± 0.00 ^c mmol Trolox/L | – | – | –
85.13 ± 0.81 ^ab % | 3.04 µM | 16.9 ± 0.67 µM | COc1cc(O)c2c(=O)c(O)c(-c3ccc(O)c(O)c3)oc2c1 [Compound 7, rhamnetin] | 0.92 ± 0.07 ^a mmol Trolox/L | 0.33 ± 0.04 ^b mmol Trolox/L | – | – | –
69.67 ± 2.20 ^b % | 19.3 µM | 9.92 ± 0.36 µM | COC(=O)[C@H]1O[C@@H](Oc2cc(-c3cc(=O)c4c(O)cc(O)cc4o3)ccc2O)[C@H](O)[C@@H](O)[C@@H]1O [Compound 5, vitegnoside] | 0.92 ± 0.00 ^a mmol Trolox/L | 1.02 ± 0.01 ^a mmol Trolox/L | – | – | –
1.77 ± 4.08 ^e % | > 50 µM | – | O=C1c2cc(CO)ccc2C(=O)c2c(O)cccc21 [Compound 10, 1-hydroxy-6-hydroxymethyl anthraquinone] | 0.13± 0.00 ^c mmol Trolox/L | 0.01 ± 0.01 ^c mmol Trolox/L | – | – | –
